From patent US9499550B2 (BRISTOL-MYERS SQUIBB COMPANY, priority 2012, dated 2016) come the findings set out here.

For assay [1], the system named is HCV genotype 1a (H77 strain) replicon in HUH-7 cells. Description: HCV replicon luciferase reporter assay, genotype 1a. It is filed as cell-based. To be noted: Hepatitis C virus, Huh-7, 72 h, HCV genotype 1a replicon luciferase, 3 days incubation. The method in brief: (§1)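 Replicon inhibition for both genotypes was measured as Renilla luciferase signal (EnduRen, 7.5 μM final, 2 h) after 3-day, 37° C exposure of replicon-bearing HUH-7 cells in 4% FCS DMEM, 0.5% DMSO. The 1b construct carries S1179I; the 1a H77 construct carries P1496L and S2204I. Twenty-point, 3-fold dilutions were fitted four-parametrically for EC50, and CC50 was taken from multiplexed Cell Titer-Blue.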
Background: In antiviral work, replicon cells carry a viral genome segment that copies itself.

Assay [2] has as its system HCV genotype 1b (Con1) replicon in HUH-7 cells. Description: HCV replicon luciferase reporter assay, genotype 1b. It is filed as cell-based. To be noted: Hepatitis C virus, Huh-7, 72 h, HCV genotype 1b replicon luciferase, 3 days incubation. The essentials:
as §1

Molecules are shown by their SMILES. Read-outs that look alike come from different tables or passages of the source.

Take `C[C@@H]1CC/C=C\[C@@H]2C[C@@]2(C(=O)NS(=O)(=O)C2(CF)CC2)NC(=O)[C@@H]2C[C@@H](Oc3nc4c(c5ccccc35)OCCC4)CN2C(=O)[C@@H](NC(=O)OC(C)(C)C)[C@H](C)C1` [Compound 6026, tert-butyl ((2R,6S,7R,9R,13aS,14aR,16aS,Z)-2-((3,4-dihydro-2H-pyrano[3,2-c]isoquinolin-6-yl)oxy)-14a-(((1-(fluoromethyl)cyclopropyl)sulfonyl)carbamoyl)-7,9-dimethyl-5,16-dioxo-1,2,3,5,6,7,8,9,10,11,13a,14,14a,15,16,16a-hexadecahydrocyclopropa[e]pyrrolo[1,2-a][1,4]diazacyclopentadecin-6-yl)carbamate]: the EC50 – broadly, the concentration giving half of the maximal effect – was 1.13 nM in assay [1] (read-out: LE_1a (EC50)); under 5.46 nM in assay [1] (read-out: LE_1a (EC50, range)); 0.7 nM in assay [2] (read-out: LE_1b (EC50)); under 5.46 nM in assay [2] (read-out: LE_1b (EC50, range)).
As for `CC[C@@H]1C[C@H](C)CC/C=C\[C@@H]2C[C@@]2(C(=O)NS(=O)(=O)C2(C)CC2)NC(=O)[C@@H]2C[C@@H](Oc3nc4c(c5ccccc35)OCCC4)CN2C(=O)C1NC(=O)OC(C)(C)C(F)(F)F` (stereo partly drawn) [Compound 6028, 1,1,1-trifluoro-2-methylpropan-2-yl((2R,6S,7R,9R,13aS,14aR,16aS,Z)-2-((3,4-dihydro-2H-pyrano[3,2-c]isoquinolin-6-yl)oxy)-7-ethyl-9-methyl-14a-(((1-methylcyclopropyl)sulfonyl)carbamoyl)-5,16-dioxo-1,2,3,5,6,7,8,9,10,11,13a,14,14a,15,16,16a-hexadecahydrocyclopropa[e]pyrrolo[1,2-a][1,4]diazacyclopentadecin-6-yl)carbamate], the concentration giving a half-maximal response (EC50) in assay [1] (read-out: LE_1a (EC50, range)) was under 5.46 nM; in assay [2] (read-out: LE_1b (EC50, range)), under 5.46 nM.
In the case of `C[C@H]1CC/C=C\[C@@H]2C[C@@]2(C(=O)NS(=O)(=O)C2(CF)CC2)NC(=O)[C@@H]2C[C@@H](Oc3nc4c(c5ccccc35)OCCC4)CN2C(=O)[C@@H](NC(=O)OC(C)(C)C(F)(F)F)[C@H](C)C1` [Compound 6029, 1,1,1-trifluoro-2-methylpropan-2-yl((2R,6S,7R,9S,13aS,14aR,16aS,Z)-2-((3,4-dihydro-2H-pyrano[3,2-c]isoquinolin-6-yl)oxy)-14a-(((1-(fluoromethyl)cyclopropyl)sulfonyl)carbamoyl)-7,9-dimethyl-5,16-dioxo-1,2,3,5,6,7,8,9,10,11,13a,14,14a,15,16,16a-hexadecahydrocyclopropa[e]pyrrolo[1,2-a][1,4]diazacyclopentadecin-6-yl)carbamate], the EC50 was 4.82 to 103 nM in assay [1] (read-out: LE_1a (EC50, range)) and 4.82 to 103 nM in assay [2] (read-out: LE_1b (EC50, range)).
For `C[C@@H]1CC/C=C\[C@@H]2C[C@@]2(C(=O)NS(=O)(=O)C2(CF)CC2)NC(=O)[C@@H]2C[C@@H](Oc3nc4c(c5ccccc35)OCCC4)CN2C(=O)[C@@H](NC(=O)OC(C)(C)C(F)(F)F)[C@H](C)C1` [Compound 6030, 1,1,1-trifluoro-2-methylpropan-2-yl((2R,6S,7R,9R,13aS,14aR,16aS,Z)-2-((3,4-dihydro-2H-pyrano[3,2-c]isoquinolin-6-yl)oxy)-14a-(((1-(fluoromethyl)cyclopropyl)sulfonyl)carbamoyl)-7,9-dimethyl-5,16-dioxo-1,2,3,5,6,7,8,9,10,11,13a,14,14a,15,16,16a-hexadecahydrocyclopropa[e]pyrrolo[1,2-a][1,4]diazacyclopentadecin-6-yl)carbamate], the EC50 in assay [1] (read-out: LE_1a (EC50)) was 1.43 nM; in assay [1] (read-out: LE_1a (EC50, range)), under 5.46 nM; in assay [2] (read-out: LE_1b (EC50)) it was 0.81 nM; in assay [2] (read-out: LE_1b (EC50, range)), under 5.46 nM.
For `C[C@H]1CC/C=C\[C@@H]2C[C@@]2(C(=O)NS(=O)(=O)C2(CF)CC2)NC(=O)[C@@H]2C[C@@H](Oc3nc4c(c5ccccc35)OCCC4)CN2C(=O)[C@@H](NC(=O)OC(C)(C)C(C)(F)F)[C@H](C)C1` [Compound 6031, 3,3-difluoro-2-methylbutan-2-yl((2R,6S,7R,9S,13aS,14aR,16aS,Z)-2-((3,4-dihydro-2H-pyrano[3,2-c]isoquinolin-6-yl)oxy)-14a-(((1-(fluoromethyl)cyclopropyl)sulfonyl)carbamoyl)-7,9-dimethyl-5,16-dioxo-1,2,3,5,6,7,8,9,10,11,13a,14,14a,15,16,16a-hexadecahydrocyclopropa[e]pyrrolo[1,2-a][1,4]diazacyclopentadecin-6-yl)carbamate], the EC50 in assay [1] (read-out: LE_1a (EC50, range)) lay in the range of 4.82 to 103 nM; in assay [2] (read-out: LE_1b (EC50, range)), 4.82 to 103 nM.
On to `C[C@H]1CC/C=C\[C@@H]2C[C@@]2(C(=O)NS(=O)(=O)C2(C)CC2)NC(=O)[C@@H]2C[C@@H](Oc3nc4c(c5ccccc35)OCCC4)CN2C(=O)[C@@H](NC(=O)OC(C)(C)C(C)(F)F)[C@H](C)C1` [Compound 6033, 3,3-difluoro-2-methylbutan-2-yl((2R,6S,7R,9S,13aS,14aR,16aS,Z)-2-((3,4-dihydro-2H-pyrano[3,2-c]isoquinolin-6-yl)oxy)-7,9-dimethyl-14a-(((1-methylcyclopropyl)sulfonyl)carbamoyl)-5,16-dioxo-1,2,3,5,6,7,8,9,10,11,13a,14,14a,15,16,16a-hexadecahydrocyclopropa[e]pyrrolo[1,2-a][1,4]diazacyclopentadecin-6-yl)carbamate], for which the concentration giving a half-maximal response (EC50) in assay [1] (read-out: LE_1a (EC50)) was 10.7 nM; in assay [1] (read-out: LE_1a (EC50, range)), 4.82 to 103 nM; in assay [2] (read-out: LE_1b (EC50)), 4.38 nM; in assay [2] (read-out: LE_1b (EC50, range)), under 5.46 nM.
With `C[C@@H]1CC/C=C\[C@@H]2C[C@@]2(C(=O)NS(=O)(=O)C2(C)CC2)NC(=O)[C@@H]2C[C@@H](Oc3nc4c(c5ccccc35)OCCC4)CN2C(=O)[C@@H](NC(=O)OC(C)(C)C(C)(F)F)[C@H](C)C1` [Compound 6034, 3,3-difluoro-2-methylbutan-2-yl((2R,6S,7R,9R,13aS,14aR,16aS,Z)-2-((3,4-dihydro-2H-pyrano[3,2-c]isoquinolin-6-yl)oxy)-7,9-dimethyl-14a-(((1-methylcyclopropyl)sulfonyl)carbamoyl)-5,16-dioxo-1,2,3,5,6,7,8,9,10,11,13a,14,14a,15,16,16a-hexadecahydrocyclopropa[e]pyrrolo[1,2-a][1,4]diazacyclopentadecin-6-yl)carbamate], the EC50 in assay [1] (read-out: LE_1a (EC50, range)) is under 5.46 nM; in assay [2] (read-out: LE_1b (EC50, range)), under 5.46 nM.
In the case of `COc1cc2ccccc2c(O[C@@H]2C[C@H]3C(=O)N[C@]4(C(=O)NS(=O)(=O)C5CC5)C[C@H]4/C=C\CC[C@@H](C)C[C@@H](C)[C@H](NC(=O)OC(C)(C)C(C)(F)F)C(=O)N3C2)n1` [Compound 6036, 3,3-difluoro-2-methylbutan-2-yl((2R,6S,7R,9R,13aS,14aR,16aS,Z)-14a-((cyclopropylsulfonyl)carbamoyl)-2-((3-methoxyisoquinolin-1-yl)oxy)-7,9-dimethyl-5,16-dioxo-1,2,3,5,6,7,8,9,10,11,13a,14,14a,15,16,16a-hexadecahydrocyclopropa[e]pyrrolo[1,2-a][1,4]diazacyclopentadecin-6-yl)carbamate], the half-maximal effective concentration (EC50) in assay [1] (read-out: LE_1a (EC50)) is 0.53 nM; in assay [1] (read-out: LE_1a (EC50, range)) it was under 5.46 nM; in assay [2] (read-out: LE_1b (EC50)), 0.38 nM; in assay [2] (read-out: LE_1b (EC50, range)), under 5.46 nM.
In the case of `COc1cc2ccccc2c(O[C@@H]2C[C@H]3C(=O)N[C@]4(C(=O)NS(=O)(=O)C5(CF)CC5)C[C@H]4/C=C\CC[C@@H](C)C[C@@H](C)[C@H](NC(=O)OC(C)(C)C(C)(F)F)C(=O)N3C2)n1` [Compound 6038, 3,3-difluoro-2-methylbutan-2-yl((2R,6S,7R,9R,13aS,14aR,16aS,Z)-14a-(((1-(fluoromethyl)cyclopropyl)sulfonyl)carbamoyl)-2-((3-methoxyisoquinolin-1-yl)oxy)-7,9-dimethyl-5,16-dioxo-1,2,3,5,6,7,8,9,10,11,13a,14,14a,15,16,16a-hexadecahydrocyclopropa[e]pyrrolo[1,2-a][1,4]diazacyclopentadecin-6-yl)carbamate], the concentration giving a half-maximal response (EC50) in assay [1] (read-out: LE_1a (EC50, range)) is under 5.46 nM; in assay [2] (read-out: LE_1b (EC50, range)) it was under 5.46 nM.
